What all share (test): DTP human tumour cell line panel, 48 h
Test [1] relates to DLD-1.
The test system of test [2] is DMS-114.
Test [3] concerns DMS-273.
The test system of test [4] is HOP-18.
The subject of test [5] is KM-20L2.
Test [6] deals with LXFL 529.
The subject of test [7] is RXF 631.
Test [8] relates to SNB-78.
The test system of test [9] is XF498.

The source of these data is ChEMBL document CHEMBL1201862, “PubChem BioAssay data set” (2004).

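Growth conditions: 96-well plates. Treatment: test compound, 48 hours, 5 concentrations. Analysis: linear interpolation between bracketing concentrations; unreached endpoints set to highest concentration. GI50 = concentration required for 50% inhibition of growth.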 Activity calls are given as the source filed them. Cut-off read from the data, not from the text of the source: active = GI50 up to about 1.1 µM and inactive = higher.

In general, GI50 refers to the concentration at which growth is held to half of that of the control.

For the compound `Clc1ccc(C2=NN(c3ccccc3)C3c4cc(Br)ccc4OCC23)cc1` (configuration not stated), the GI50 is > 100 µM (inactive) in [1]; 86.1 µM (inactive) in test [2]; > 100 µM (inactive) in test [3]; > 100 µM (inactive) in [4]; > 100 µM (inactive) in test [5]; 72.1 µM (inactive) in [6]. For the same compound, the GI50 is > 100 µM (inactive) in test [7], > 100 µM (inactive) in [8] and 66.2 µM (inactive) in test [9].
For `CCCCCCC(=O)OC[n+]1ccc2c(C)c3[nH]c4ccc(OC)cc4c3c(C)c2c1`, the GI50 in test [1] is 0.092 µM (active); in test [2], 0.522 µM (active); in test [3], 0.029 µM (active); in test [5], 2.42 µM (inactive); in test [6], 0.133 µM (active); in [7], 0.455 µM (active). Also, in [8], the GI50 was 1.06 µM (active).
As to `N#C/C(=C/Sc1ccccc1)C(=O)O`, the GI50 in [1] is 36 µM (inactive); in [2] it was 15.1 µM (inactive); in test [3], 22.2 µM (inactive); in test [4], > 100 µM (inactive); in test [5], 30.1 µM (inactive); in test [6], 21.2 µM (inactive). The GI50 in test [8] was 18 µM (inactive); in test [9], 41.8 µM (inactive).
For `N#CC(NNC(=O)Cc1ccccc1)c1cccc(O)c1` (configuration not stated), the GI50 in test [1], in [2], in test [3], in test [4], in test [6] and in test [8] was > 100 µM (inactive) in each case.
Turning to `COc1ccc(CC2=NCCc3cc(OC)c(OC)cc32)cc1Br`, the GI50 was 19.1 µM (inactive) in test [1]; 10.2 µM (inactive) in test [2]; 12.7 µM (inactive) in test [3]; > 100 µM (inactive) in test [4]; 4.11 µM (inactive) in test [5]; 7.36 µM (inactive) in test [6]. For the same compound, the GI50 in test [8] was 58.1 µM (inactive); in test [9], 22.8 µM (inactive).
`COC(=O)C(C(=O)C(=O)Nc1cccc(OC)c1)c1cnc2ccccc2n1` (configuration not stated): the GI50 in test [1], in test [2], in test [3], in test [4], in test [5] and in test [6] was > 100 µM (inactive) in each case. The GI50 in test [7], in [8] and in test [9] was > 100 µM (inactive) throughout.
In the case of `CCC12CCCC(=O)N1C(CO)C(c1ccccc1)O2` (configuration not stated), the GI50 was > 100 µM (inactive) in test [1]; 38 µM (inactive) in test [2]; > 100 µM (inactive) in test [3]; > 100 µM (inactive) in [4]; > 100 µM (inactive) in test [5]; > 100 µM (inactive) in test [8]. Further, the GI50 in test [9] is > 100 µM (inactive).
In the case of `Nc1ccc(C(=O)NN2C(=O)C(Cl)C2c2cccc([N+](=O)[O-])c2)cc1` (configuration not stated), the GI50 in [1] was 17.9 µM (inactive); in [2], 18.7 µM (inactive); in test [3], 16 µM (inactive); in [5] it was 25.3 µM (inactive); in test [6] it was 20 µM (inactive); in [8] it was 63.2 µM (inactive). Further, in test [9], the GI50 is 13.2 µM (inactive).
With `O=S1(=O)NN=C(NCc2ccc(Cl)c(Cl)c2)c2ccccc21`, the GI50 in test [1] was 56.9 µM (inactive); in [2], > 100 µM (inactive); in test [3] it was > 100 µM (inactive); in test [4], > 100 µM (inactive); in test [5] it was > 100 µM (inactive); in test [6], 42.2 µM (inactive). Further, in test [8], the GI50 is 97.5 µM (inactive).
For the compound `O=C1C(Cl)C(c2ccc([N+](=O)[O-])cc2)N1n1cnc2ccccc2c1=O` (configuration not stated), the GI50 in [1] is 53.1 µM (inactive); in test [2], 20.2 µM (inactive); in [3], 34.5 µM (inactive); in test [4] it was 40.6 µM (inactive); in test [5] it was > 100 µM (inactive); in test [6], 22.7 µM (inactive). The GI50 in test [8] is 24.1 µM (inactive); in [9], 64.9 µM (inactive).
As to `Cc1c2cc[n+]([O-])cc2c(C)c2c1[nH]c1ccccc12`, the GI50 in test [1] was 5.42 µM (inactive); in test [2], 11.2 µM (inactive); in test [3], 3.82 µM (inactive); in [4], 45 µM (inactive); in test [5], 4.06 µM (inactive); in test [6] it was 4.65 µM (inactive). For the same compound, the results for the GI50 in [7], in [8] and in test [9] were 0.879 µM (active), 7.71 µM (inactive) and 9.98 µM (inactive), respectively.
In the case of `O=C(Nc1ccc(Cl)cc1Cl)C(=O)C(C(=O)c1ccncc1)C1OC(=O)c2ccccc21` (configuration not stated), the GI50 in test [1], in [2], in [4], in [5], in test [6] and in test [7] was > 100 µM (inactive) throughout. Moreover, the GI50 in [8] and in test [9] was > 100 µM (inactive) throughout.
In the case of `COc1ccccc1/N=C(\N)N/N=C/c1c[nH]c2ccccc12`, the GI50 in test [1] is 13.8 µM (inactive); in test [2] it was 3.39 µM (inactive); in [4], 18.6 µM (inactive); in [5] it was 13.3 µM (inactive); in [6] it was 2.23 µM (inactive); in test [8], 6.85 µM (inactive). Further, in test [9], the GI50 was 4.42 µM (inactive).
Regarding `O=C(N/N=C/c1cc(-c2ccccc2Cl)c(-c2ccccc2Cl)o1)c1ccncc1`, the GI50 in [1] was > 100 µM (inactive); in [2], 87.9 µM (inactive); in test [5], > 100 µM (inactive); in test [6] it was 96.6 µM (inactive); in [7], > 100 µM (inactive); in test [9] it was > 100 µM (inactive).
As for `COc1ccc(S(=O)(=O)NC(C)C(=O)O)cc1` (configuration not stated), the GI50 was > 100 µM (inactive) in test [1]; > 100 µM (inactive) in [3]; > 100 µM (inactive) in [4]; > 100 µM (inactive) in [5]; > 100 µM (inactive) in test [6]; 21.9 µM (inactive) in test [9].
`CC(=O)Nc1ccc(C2CC(c3ccc([N+](=O)[O-])cc3)=Nc3ccccc3[S+]2[O-])cc1` (configuration not stated): the GI50 is 15.9 µM (inactive) in test [1]; 21.2 µM (inactive) in [2]; 13.6 µM (inactive) in test [3]; 27.2 µM (inactive) in test [4]; 21.6 µM (inactive) in test [5]; 16.7 µM (inactive) in test [6]. For the same compound, the GI50 in test [7] is > 10 µM (inactive); in [9] it was 24.2 µM (inactive).
Turning to `CCOc1ccc2c(c1)[n+]([O-])c(-c1ccccc1)c(N)[n+]2[O-]`, the GI50 in test [1] was > 100 µM (inactive); in test [2] it was 34.9 µM (inactive); in test [3], 77.1 µM (inactive); in [4], 53.6 µM (inactive); in test [5], 59 µM (inactive); in test [6], 46.6 µM (inactive). Further, the GI50 in test [9] is > 100 µM (inactive).
For `OCC1OC(n2cnc3c2NC=NC[C@H]3O)CC1O` (some centres not stated), the GI50 was 494 µM (inactive) in test [1]; 426 µM (inactive) in test [2]; 489 µM (inactive) in [3]; > 500 µM (inactive) in test [5]; > 500 µM (inactive) in test [6]; 483 µM (inactive) in test [8]. In [9], the GI50 was 442 µM (inactive).
With `CC1=NN(c2ccccc2)C(=O)C1=C1SCCCS1`, the GI50 is 21.5 µM (inactive) in test [1]; 20.8 µM (inactive) in test [2]; 32.7 µM (inactive) in test [3]; 20.8 µM (inactive) in test [4]; 31.4 µM (inactive) in test [5]; 34.6 µM (inactive) in [6]. In addition, the GI50 is 66.2 µM (inactive) in test [8] and 16.6 µM (inactive) in test [9].
Take `CCCCCCCCCCCCN(O)C(=O)c1ccccc1`: the GI50 in test [1] was 26.4 µM (inactive); in test [4], 62.1 µM (inactive); in test [5] it was 36.2 µM (inactive); in test [6], 30.5 µM (inactive); in test [9] it was 21.6 µM (inactive).
